Data as given in ChEMBL document CHEMBL1201862, “PubChem BioAssay data set” (2004).
Activity calls are given as the source filed them.

Columns and labels:
[1] = NIH-3T3 fibroblast cytotoxicity, dose response, cytotoxicity control, cell-based, fluorescence, Alamar Blue, secondary assay (AID 2327); type: functional;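 further: NIH-3T3 mouse fibroblasts cultured with fluconazole at 8 µg/mL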
[2] = C. albicans growth with fluconazole, confirmation, fluorescence, retest (AID 2467); type: functional, cell-based
[3] = biological target: T1, Serine/threonine-protein phosphatase (Candida dubliniensis (strain CD36 / CBS 7987 / NCPF 3949 / NRRLY-17841) (Yeast), UniProt B9W6M3); assay: calcineurin pathway inhibitors in yeast reporter, dose response, S. cerevisiae, CDRE-lacZ, luminescence, secondary (AID 2388); type: functional, cell-based;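 further: yeast reporter cells carrying a calcineurin-responsive lacZ construct stimulated with calcium chloride; luminescent beta-galactosidase reporter signal in whole cells rather than isolated phosphatase activity; potency for inhibition where a drop in reporter signal means calcineurin blockade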
T1 sequence (B9W6M3 whole entry): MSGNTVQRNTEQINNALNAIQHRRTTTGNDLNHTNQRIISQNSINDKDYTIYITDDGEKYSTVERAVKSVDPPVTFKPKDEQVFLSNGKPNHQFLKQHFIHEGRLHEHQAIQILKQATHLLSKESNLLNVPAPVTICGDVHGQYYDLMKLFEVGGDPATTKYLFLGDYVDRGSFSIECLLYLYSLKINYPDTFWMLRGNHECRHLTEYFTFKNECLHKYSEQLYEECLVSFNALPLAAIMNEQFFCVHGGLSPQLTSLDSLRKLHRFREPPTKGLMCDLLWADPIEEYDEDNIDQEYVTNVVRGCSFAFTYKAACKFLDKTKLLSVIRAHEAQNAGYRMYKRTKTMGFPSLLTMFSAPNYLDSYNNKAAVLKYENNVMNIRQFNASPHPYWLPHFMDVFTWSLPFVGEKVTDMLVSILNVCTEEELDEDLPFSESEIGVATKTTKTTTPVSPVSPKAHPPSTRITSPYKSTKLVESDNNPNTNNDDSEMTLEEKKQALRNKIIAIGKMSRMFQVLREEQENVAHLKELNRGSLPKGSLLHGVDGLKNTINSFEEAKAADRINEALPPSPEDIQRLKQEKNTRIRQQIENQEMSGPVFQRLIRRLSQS

[4] = biological target: ATP-dependent molecular chaperone HSP82 (Candida albicans (strain WO-1) (Yeast), UniProt C4YTQ8); assay: loss of DOC-induced GRE-beta-galactosidase reporter signal, dose response, Hsp90 inhibitor project, S. cerevisiae, luminescence (AID 2400); type: functional, cell-based;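 further: beta-galactosidase luminescence from glucocorticoid response element reporter as proxy for Hsp90 function; inhibitor potency where signal loss means Hsp90 inhibition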
[5] = biological target: T2, Polyadenylate-binding protein 1 (Homo sapiens, UniProt P11940); assay: PABP1 MLLE–PAM2 interaction inhibitors, dose response, miRNA deadenylation inhibitor project, biochemical, fluorescence polarization, Cy5-PAM2 peptide, secondary (AID 602260); type: functional; conditions: read-out: IC50_Mean
[6] = biological target: T2, Polyadenylate-binding protein 1; assay: PABP1 MLLE–PAM2 binding inhibitor potency, dose response, biochemical, fluorescence polarization, FITC-PAM2 peptide (AID 602259); type: functional; conditions: read-out: IC50_Mean
[7] = biological target: T3, Rac GTPase-activating protein 1 (Homo sapiens, UniProt Q9H0H5); assay: MgcRacGAP GTPase-activating activity inhibitors, confirmation, biochemical, ADP Hunter fluorescence, primary and confirmatory (AID 624330); type: functional
T3 sequence (Q9H0H5 whole entry): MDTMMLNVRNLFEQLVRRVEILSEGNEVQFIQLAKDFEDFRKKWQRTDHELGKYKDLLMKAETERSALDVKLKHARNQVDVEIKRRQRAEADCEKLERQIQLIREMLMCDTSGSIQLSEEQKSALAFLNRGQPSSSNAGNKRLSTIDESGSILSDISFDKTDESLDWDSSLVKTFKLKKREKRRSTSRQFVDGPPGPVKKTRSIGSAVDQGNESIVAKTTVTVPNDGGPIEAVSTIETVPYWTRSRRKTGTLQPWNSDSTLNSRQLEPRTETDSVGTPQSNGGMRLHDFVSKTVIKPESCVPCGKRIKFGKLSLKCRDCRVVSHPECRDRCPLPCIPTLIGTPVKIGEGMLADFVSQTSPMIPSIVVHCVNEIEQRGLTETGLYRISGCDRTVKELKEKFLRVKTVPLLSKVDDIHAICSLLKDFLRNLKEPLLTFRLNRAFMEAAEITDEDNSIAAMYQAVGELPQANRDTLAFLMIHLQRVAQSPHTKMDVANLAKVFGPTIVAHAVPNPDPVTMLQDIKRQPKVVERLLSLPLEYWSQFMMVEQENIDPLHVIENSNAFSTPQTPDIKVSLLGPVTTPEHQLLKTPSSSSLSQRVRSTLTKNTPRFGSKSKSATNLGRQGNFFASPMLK

[8] = biological target: T4, Heat shock factor protein 1 (Mus musculus, UniProt P38532); assay: inhibition of MG132-induced HSE-luciferase signal, confirmation, cell-based, NIH3T3, luminescence, dose retest (AID 2382); type: functional;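 further: NIH3T3 fibroblasts with HSF1-driven luciferase reporter stressed by proteasome inhibitor MG132; luminescence from HSF1-driven luciferase expression after 8 hours of MG132 stress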
T4 sequence (P38532 whole entry): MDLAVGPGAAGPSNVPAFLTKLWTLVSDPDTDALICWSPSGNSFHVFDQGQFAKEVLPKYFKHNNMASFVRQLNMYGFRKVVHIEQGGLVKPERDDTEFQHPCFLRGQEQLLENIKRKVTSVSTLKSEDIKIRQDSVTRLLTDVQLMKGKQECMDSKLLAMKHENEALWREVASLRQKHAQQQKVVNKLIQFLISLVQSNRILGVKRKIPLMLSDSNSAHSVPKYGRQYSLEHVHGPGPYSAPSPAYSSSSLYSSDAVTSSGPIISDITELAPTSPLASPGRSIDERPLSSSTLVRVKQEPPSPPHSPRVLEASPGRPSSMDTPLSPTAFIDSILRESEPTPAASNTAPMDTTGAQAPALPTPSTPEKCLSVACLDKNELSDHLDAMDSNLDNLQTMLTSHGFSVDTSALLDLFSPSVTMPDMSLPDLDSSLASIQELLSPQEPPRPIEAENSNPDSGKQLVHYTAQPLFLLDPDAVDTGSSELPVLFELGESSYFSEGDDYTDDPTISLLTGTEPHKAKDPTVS

Mu-type opioid receptor = Mu-type opioid receptor (Homo sapiens, UniProt P35372); type: functional, cell-based;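 further: U2OS cells with beta-arrestin recruitment to OPRM1 by beta-gal complementation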
[9] = biological target: 5-hydroxytryptamine receptor 2A (Mus musculus, UniProt P35363); type: functional, cell-based;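 further: CHO-K1 cells with tagged receptor and beta-arrestin; agonist potency measured as compound-induced activation of the receptor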
[10] = biological target: Heat shock protein HSP 90-alpha (Homo sapiens, UniProt P07900); type: functional, organism-based
Vero [11] = assay: Vero cell cytotoxicity, cytotoxicity control for flavivirus capping enzyme inhibitors (AID 588742); type: functional; conditions: Chlorocebus sabaeus
Genome polyprotein = Genome polyprotein (dengue virus type 2, UniProt P29990); assay: Dengue-2 NS5 methyltransferase inhibitors, primary screen, biochemical, confirmation dose response (AID 588689); type: functional
[12] = HeLa cell cytotoxicity, dose response, cytotoxicity control for MgcRacGAP inhibitor project (AID 624300); type: functional
[13] = biological target: SWI/SNF-related matrix-associated actin-dependent regulator of chromatin subfamily A member 2 (Homo sapiens, UniProt P51531); assay: Luminescence-based cell-based high throughput dose response assay to identify activators of the function of SWI/SNF related, matrix associated, actin dependent regulator of chromatin, subfamily a, member 2 (SMARCA2, BRM).; type: functional
[14] = Counterscreen for activators of the function of SWI/SNF related, matrix associated, actin dependent regulator of chromatin, subfamily a, member 2 (SMARCA2, BRM): Luminescence-based cell-based high throughput dose response assay to identify non-selective compounds using the VP16 reporter assay.; type: functional
[15] = biological target: T5, DNA repair protein RAD52 homolog (Homo sapiens, UniProt P43351); type: functional, biochemical
T5 sequence (P43351 whole entry): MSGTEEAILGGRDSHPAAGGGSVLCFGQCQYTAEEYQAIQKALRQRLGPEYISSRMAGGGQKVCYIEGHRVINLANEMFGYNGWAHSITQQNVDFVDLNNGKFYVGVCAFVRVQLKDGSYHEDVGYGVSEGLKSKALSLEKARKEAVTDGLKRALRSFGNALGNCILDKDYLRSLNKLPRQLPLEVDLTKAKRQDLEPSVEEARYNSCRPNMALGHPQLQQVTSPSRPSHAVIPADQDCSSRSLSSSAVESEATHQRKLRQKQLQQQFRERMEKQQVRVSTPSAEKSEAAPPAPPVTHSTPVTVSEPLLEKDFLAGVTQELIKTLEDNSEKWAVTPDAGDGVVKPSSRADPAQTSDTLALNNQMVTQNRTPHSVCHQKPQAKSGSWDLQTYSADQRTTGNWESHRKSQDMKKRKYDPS

H9c2 = assay: cells; type: functional, cell-based; conditions: Rattus norvegicus, H9c2, Myocardium;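 further: confirmatory concentration-response retest of ultra-high-throughput screening hits for modulation of myocardial damage; cell death induced by hydrogen peroxide oxidative stress; compound pretreatment for 60 min then peroxide exposure for 2 h; potency is for protecting the cells against peroxide damage rather than for killing them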
Vero [16] = assay: cells; type: functional; conditions: Chlorocebus sabaeus
Paired box protein Pax-8 = Paired box protein Pax-8 (Homo sapiens, UniProt Q06710); assay: inhibitors of PAX8-driven TPO luciferase reporter, dose response, RMG-I cells, cherry-pick (AID 687027); type: functional, cell-based;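 further: luciferase reporter driven by Pax8 target thyroperoxidase promoter measured by SteadyGlo luminescence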
Paired box protein Pax-8, sequence (Q06710 whole entry): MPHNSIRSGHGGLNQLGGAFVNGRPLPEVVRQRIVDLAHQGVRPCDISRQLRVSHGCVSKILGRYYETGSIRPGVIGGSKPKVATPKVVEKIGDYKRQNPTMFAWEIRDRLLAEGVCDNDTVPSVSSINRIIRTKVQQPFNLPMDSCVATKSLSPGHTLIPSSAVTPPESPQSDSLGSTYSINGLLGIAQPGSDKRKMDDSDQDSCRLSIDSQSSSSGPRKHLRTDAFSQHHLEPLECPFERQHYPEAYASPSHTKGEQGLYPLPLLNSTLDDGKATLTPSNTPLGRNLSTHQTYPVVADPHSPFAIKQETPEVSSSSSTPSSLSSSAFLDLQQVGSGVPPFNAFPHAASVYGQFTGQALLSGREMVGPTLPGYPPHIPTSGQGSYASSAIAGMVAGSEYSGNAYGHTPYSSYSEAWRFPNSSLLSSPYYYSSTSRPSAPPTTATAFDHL

ATP-dependent molecular chaperone HSP82, sequence (C4YTQ8 whole entry): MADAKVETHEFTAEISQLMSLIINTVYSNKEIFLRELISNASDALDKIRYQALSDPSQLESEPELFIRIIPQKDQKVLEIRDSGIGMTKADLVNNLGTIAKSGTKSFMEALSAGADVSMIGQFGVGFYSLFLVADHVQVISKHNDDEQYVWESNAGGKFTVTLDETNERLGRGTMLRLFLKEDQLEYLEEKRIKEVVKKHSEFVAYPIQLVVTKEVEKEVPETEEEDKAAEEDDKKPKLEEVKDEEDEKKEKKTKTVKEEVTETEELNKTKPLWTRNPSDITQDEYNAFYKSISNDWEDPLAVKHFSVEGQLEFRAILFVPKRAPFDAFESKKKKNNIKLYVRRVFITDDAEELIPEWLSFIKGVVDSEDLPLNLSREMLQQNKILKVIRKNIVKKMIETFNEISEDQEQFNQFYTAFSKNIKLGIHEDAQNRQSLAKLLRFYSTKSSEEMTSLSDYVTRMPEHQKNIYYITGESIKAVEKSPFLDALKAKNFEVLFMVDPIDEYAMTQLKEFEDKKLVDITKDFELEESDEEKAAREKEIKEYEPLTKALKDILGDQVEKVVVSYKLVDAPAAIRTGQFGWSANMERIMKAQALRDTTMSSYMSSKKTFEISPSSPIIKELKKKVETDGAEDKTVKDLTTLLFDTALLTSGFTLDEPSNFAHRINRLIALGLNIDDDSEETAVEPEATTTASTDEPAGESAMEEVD
SWI/SNF-related matrix-associated actin-dependent regulator of chromatin subfamily A member 2, sequence (P51531 whole entry): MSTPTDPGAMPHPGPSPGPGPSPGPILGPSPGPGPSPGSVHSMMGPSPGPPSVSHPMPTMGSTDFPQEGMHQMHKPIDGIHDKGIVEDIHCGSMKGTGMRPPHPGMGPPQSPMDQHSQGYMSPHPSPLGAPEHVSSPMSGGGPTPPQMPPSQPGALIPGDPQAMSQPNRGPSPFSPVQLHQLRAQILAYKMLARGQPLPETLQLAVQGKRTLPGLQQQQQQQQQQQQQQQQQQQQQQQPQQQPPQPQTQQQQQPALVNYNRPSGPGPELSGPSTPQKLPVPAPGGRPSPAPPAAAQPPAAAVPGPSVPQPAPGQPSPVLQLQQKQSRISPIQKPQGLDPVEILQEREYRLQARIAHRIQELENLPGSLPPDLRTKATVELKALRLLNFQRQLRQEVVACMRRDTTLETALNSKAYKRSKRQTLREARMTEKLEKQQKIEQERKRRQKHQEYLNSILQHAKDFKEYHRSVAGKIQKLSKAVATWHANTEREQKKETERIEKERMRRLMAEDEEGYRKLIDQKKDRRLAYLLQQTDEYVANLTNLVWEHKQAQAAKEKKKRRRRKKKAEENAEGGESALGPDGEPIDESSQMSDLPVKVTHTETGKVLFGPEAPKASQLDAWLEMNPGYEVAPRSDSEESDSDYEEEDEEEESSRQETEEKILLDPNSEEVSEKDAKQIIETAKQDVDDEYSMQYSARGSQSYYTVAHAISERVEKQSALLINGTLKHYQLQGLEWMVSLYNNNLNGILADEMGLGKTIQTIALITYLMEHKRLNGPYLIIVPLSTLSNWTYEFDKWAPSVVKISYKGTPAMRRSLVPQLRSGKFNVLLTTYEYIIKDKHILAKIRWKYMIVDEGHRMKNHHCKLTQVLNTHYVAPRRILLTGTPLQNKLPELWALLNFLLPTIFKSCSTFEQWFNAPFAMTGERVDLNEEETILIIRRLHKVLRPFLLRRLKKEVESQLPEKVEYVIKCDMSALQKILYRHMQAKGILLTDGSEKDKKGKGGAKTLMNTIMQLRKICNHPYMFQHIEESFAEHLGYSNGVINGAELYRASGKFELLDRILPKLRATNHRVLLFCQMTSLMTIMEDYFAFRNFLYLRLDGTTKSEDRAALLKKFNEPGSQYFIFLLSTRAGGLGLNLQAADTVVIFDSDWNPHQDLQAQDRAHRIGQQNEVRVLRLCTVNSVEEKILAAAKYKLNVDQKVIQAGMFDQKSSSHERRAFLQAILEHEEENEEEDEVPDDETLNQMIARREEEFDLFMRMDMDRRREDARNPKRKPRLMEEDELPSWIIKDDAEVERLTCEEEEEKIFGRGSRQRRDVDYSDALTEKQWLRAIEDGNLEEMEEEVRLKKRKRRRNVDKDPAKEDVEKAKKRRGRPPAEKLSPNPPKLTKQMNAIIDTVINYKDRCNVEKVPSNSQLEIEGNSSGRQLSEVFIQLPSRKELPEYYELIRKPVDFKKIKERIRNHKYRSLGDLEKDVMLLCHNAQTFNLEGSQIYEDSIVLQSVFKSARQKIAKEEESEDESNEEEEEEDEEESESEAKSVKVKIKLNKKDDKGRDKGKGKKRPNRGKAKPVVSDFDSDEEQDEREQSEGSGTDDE
T2 sequence (P11940 whole entry): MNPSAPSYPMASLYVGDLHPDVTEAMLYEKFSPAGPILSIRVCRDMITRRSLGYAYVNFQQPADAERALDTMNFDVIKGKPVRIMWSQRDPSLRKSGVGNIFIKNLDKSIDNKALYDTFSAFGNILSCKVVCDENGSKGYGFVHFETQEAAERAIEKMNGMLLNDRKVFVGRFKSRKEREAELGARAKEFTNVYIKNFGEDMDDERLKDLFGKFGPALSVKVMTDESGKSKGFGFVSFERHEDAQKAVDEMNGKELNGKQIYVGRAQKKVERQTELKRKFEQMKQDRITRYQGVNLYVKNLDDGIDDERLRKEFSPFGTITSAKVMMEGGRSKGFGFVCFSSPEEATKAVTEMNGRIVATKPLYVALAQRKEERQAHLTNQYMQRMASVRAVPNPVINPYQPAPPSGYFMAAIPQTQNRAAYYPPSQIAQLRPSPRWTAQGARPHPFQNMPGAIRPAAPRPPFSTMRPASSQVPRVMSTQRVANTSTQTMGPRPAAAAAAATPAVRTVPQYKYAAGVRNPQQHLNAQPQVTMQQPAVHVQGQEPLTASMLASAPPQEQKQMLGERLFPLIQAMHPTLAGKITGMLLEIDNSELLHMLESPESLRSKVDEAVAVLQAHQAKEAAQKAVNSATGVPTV
5-hydroxytryptamine receptor 2A, sequence (P35363 whole entry): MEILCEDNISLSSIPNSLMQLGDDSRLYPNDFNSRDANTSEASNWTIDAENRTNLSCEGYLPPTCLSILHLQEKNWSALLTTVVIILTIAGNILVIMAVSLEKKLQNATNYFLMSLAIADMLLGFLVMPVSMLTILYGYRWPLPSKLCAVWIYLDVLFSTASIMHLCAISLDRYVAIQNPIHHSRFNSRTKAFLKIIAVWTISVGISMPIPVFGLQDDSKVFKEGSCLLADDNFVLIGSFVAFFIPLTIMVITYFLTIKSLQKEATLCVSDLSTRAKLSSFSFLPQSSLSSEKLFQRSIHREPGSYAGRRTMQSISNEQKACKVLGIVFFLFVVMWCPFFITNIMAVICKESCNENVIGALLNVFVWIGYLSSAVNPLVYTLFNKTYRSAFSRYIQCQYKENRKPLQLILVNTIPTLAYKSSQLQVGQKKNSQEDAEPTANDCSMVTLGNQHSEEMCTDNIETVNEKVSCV
Mu-type opioid receptor, sequence (P35372 whole entry): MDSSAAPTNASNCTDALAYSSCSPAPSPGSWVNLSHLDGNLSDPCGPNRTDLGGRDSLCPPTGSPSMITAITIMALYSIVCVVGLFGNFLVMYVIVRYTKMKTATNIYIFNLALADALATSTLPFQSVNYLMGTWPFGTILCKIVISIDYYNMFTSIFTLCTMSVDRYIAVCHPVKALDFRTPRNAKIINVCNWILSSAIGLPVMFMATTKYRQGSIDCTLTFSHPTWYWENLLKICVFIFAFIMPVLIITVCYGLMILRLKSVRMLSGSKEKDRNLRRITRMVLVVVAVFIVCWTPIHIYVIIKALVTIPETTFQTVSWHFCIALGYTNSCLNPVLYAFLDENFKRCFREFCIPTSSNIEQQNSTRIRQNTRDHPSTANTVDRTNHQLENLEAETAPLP

| SMILES | EC50 [1] | EC50 [2] | EC50 [3] | EC50 [4] | EC50 [13] | EC50 [14] | also measured |
| --- | --- | --- | --- | --- | --- | --- | --- |
| O=C(NCc1ccco1)c1sc(=S)n2c1[nH]c(=O)c1ccccc12 | > 160 µM (inactive) | 0.837 µM (active) | > 180 µM (inactive) | > 160 µM (inactive) | – | – | IC50 [5]: > 66 µM (inactive); IC50 [6]: > 66 µM (inactive); IC50 [7]: 75.6 µM (active) |
| c1ccc(COc2cccc(CN3CCN(c4ccccn4)CC3)c2)cc1 | – | – | – | – | – | – | EC50 [8]: > 195 µM (not active); EC50 (Mu-type opioid receptor): 92.5 µM (inactive); EC50 [9]: 0.022 µM (active) |
| Oc1c(Cl)cccc1Cc1cc(Cl)cc(Cl)c1O | – | – | – | – | – | – | AC50 [10]: 3.05 µM (active); CC50 (Vero [11]): 19.3 µM (active); IC50 (Genome polyprotein): 45.5 µM (active) |
| COc1cc2c[n+](C)c3c4ccccc4ccc3c2cc1OC | – | – | – | – | > 91.1 µM (inactive) | > 91.1 µM (inactive) | CC50 [12]: 66 µM (active); IC50 [7]: 60.5 µM (active); AC50 [15]: 0.36 µM (active) |
| O=C(c1cc2c(s1)CCCCC2)N1CCN(c2ncccn2)CC1 | > 160 µM (inconclusive) | 1.2 µM (active) | > 180 µM (inactive) | 23.9 µM (active) | – | – | – |
| NC(=O)c1c(NC(=O)c2ccco2)sc2c1CCC2 | > 150 µM (inactive) | 0.654 µM (inconclusive) | > 180 µM (inactive) | > 150 µM (inactive) | – | – | – |
| NC(=O)c1ccsc1NC(=O)c1ccc([N+](=O)[O-])o1 | – | – | – | – | > 91.1 µM (inactive) | > 91.1 µM (inactive) | IC50 (H9c2): > 79 µM (inactive); CC50 (Vero [16]): 11.7 µM (active); AC50 (Paired box protein Pax-8): 3.8 µM (active) |
| CC(C)=CCNc1ncnc2c1c(C#N)cn2C1OC(CO)C(O)C1O (centres undefined) | – | – | – | – | > 91.1 µM (inactive) | > 91.1 µM (inactive) | AC50 (Paired box protein Pax-8): 3.79 µM (active) |
